{
  "source": "patent US20060058322A1",
  "about": "“Method of wound healing using A2B adenosine receptor antagonists” (priority 2004, published 2006)",
  "key": {"ICR derived male mice": {"system": "ICR derived male mice", "test": "Wound healing in mouse model (full-thickness punch wound, topical treatment)", "type": "in vivo", "settings": "mean, n=5; for CT50 (wound half-closure time): linear regression", "description": "Groups of ICR derived male mice (weighing 24±2 g) of 5 each were used. During testing period, the animals were single-housed in each cage. Under hexobarbital (90 mg/kg, IP) anesthesia, the shoulder and back region of each animal was shaved. A sharp punch (ID 12 mm) was applied to remove the skin including panniculus carnosus and adherent tissues. […] Test substances were administered topically immediately following wound injury once daily for a total of 10 consecutive days. The closure of the wound (%) and wound half-closure time (CT50) were determined by linear regression using Graph-Pad Prism™ (Graph Pad Software USA) and unpaired Student's t test was applied for comparison between treated and vehicle groups at each measurement time point on days 3, 5, 7, 9 and 11. Differences are considered of statistical significance at P<0.05 level.\nTable 1 presents test data obtained for the compound 3-ethyl-1-propyl-8-(1-{[3-(trifluoromethyl)phenyl]methyl}pyrazol-4-yl)-1,3,7-trihydropurine-2,6-dione using the mouse model discussed above. Table 2 presents test date obtained using 1,3-dipropyl-8-(1-{[6-(trifluoromethyl)(3-pyridyl)]methyl}pyrazol-4-yl)- 1,3,7-trihydropurine-2,6-dione. In each case, the vehicle used for comparison was 1.5% carboxymethylcellulose in phosphate buffered saline at pH 7.4"}, "Yorkshire pig": {"system": "Yorkshire pig", "test": "Wound healing in pig model (full thickness excisions, total granulation tissue)", "type": "in vivo", "description": "Pig skin heals most like human skin and therefore testing on this animal provides an optimal paradigm to study cutaneous repair mechanisms. In this Example, the effect of an A2B antagonist on wound healing was tested in three pigs. PDGF (REGRANEX® (becaplermin) Gel 0.01%, Ortho-McNeil Pharmaceutical, Inc., Raritan, N.J.) was used as a positive control. The vehicle for drug delivery was 1.5% methylcellulose gel (KY gel). Control wounds received the vehicle alone. 3 different dosages of the A2B antagonist 3-ethyl-1-propyl-8-(1-{[3-(trifluoromethyl)phenyl]methyl}pyrazol-4-yl)-1,3,7-trihydropurine-2,6-dione, 1 μg/40 μl, 4 μg/40 μl, and 20 μg/40 μl were tested.\nMethod: Three Yorkshire pig ([…].) were used. On the day of surgery, a series of full thickness excisions were created alongside the paravertebral region on one side of the pig. Pigs were sacrificed at the end of 10 days and all wounds were removed for histological and immunohistochemical examinations."}},
  "note": "Marks after values point to notes of the source that are not given here.",
  "data": [
    {"compound": "CCCn1c(=O)c2[nH]c(-c3cnn(Cc4ccc(C(F)(F)F)nc4)c3)nc2n(CCC)c1=O", "note": "[1,3-dipropyl-8-(1-{[6-(trifluoromethyl)(3-pyridyl)]methyl}pyrazol-4-yl)-1,3,7-trihydropurine-2,6-dione]", "values": [
      {"measurement": "Percent wound closure", "setting": "ICR derived male mice; Table 2, 0.5 μg/mouse topical once daily, Day 3", "value": "41.9* %"},
      {"measurement": "Percent wound closure", "setting": "ICR derived male mice; Table 2, 0.5 μg/mouse topical once daily, Day 5", "value": "53.5* %"},
      {"measurement": "Percent wound closure", "setting": "ICR derived male mice; Table 2, 0.5 μg/mouse topical once daily, Day 7", "value": "65.8* %"},
      {"measurement": "Percent wound closure", "setting": "ICR derived male mice; Table 2, 0.5 μg/mouse topical once daily, Day 9", "value": "77.1* %"},
      {"measurement": "Percent wound closure", "setting": "ICR derived male mice; Table 2, 0.5 μg/mouse topical once daily, Day 11", "value": "85.3* %"},
      {"measurement": "CT50 (wound half-closure time)", "setting": "ICR derived male mice; Table 2, 0.5 μg/mouse topical once daily", "value": "5.5* DAYS"}
    ]},
    {"compound": "PDGF", "values": [
      {"measurement": "Total granulation tissue, positive control versus placebo formulation", "setting": "Yorkshire pig; REGRANEX (becaplermin) Gel 0.01%, p=0.034", "value": "statistical difference"}
    ]},
    {"compound": "CCCn1c(=O)c2[nH]c(-c3cnn(Cc4cccc(C(F)(F)F)c4)c3)nc2n(CC)c1=O", "note": "[3-ethyl-1-propyl-8-(1-{[3-(trifluoromethyl)phenyl]methyl}pyrazol-4-yl)-1,3,7-trihydropurine-2,6-dione]", "values": [
      {"measurement": "Percent wound closure", "setting": "ICR derived male mice; 0.5 μg/mouse topical once daily, Day 1", "value": 0, "unit": "%"},
      {"measurement": "Percent wound closure", "setting": "ICR derived male mice; 0.5 μg/mouse topical once daily, Day 2", "value": "43.2* %"},
      {"measurement": "Percent wound closure", "setting": "ICR derived male mice; 0.5 μg/mouse topical once daily, Day 3", "value": "51.2* %"},
      {"measurement": "Percent wound closure", "setting": "ICR derived male mice; 0.5 μg/mouse topical once daily, Day 4", "value": "56.0* %"},
      {"measurement": "Percent wound closure", "setting": "ICR derived male mice; 0.5 μg/mouse topical once daily, Day 5", "value": "58.8* %"},
      {"measurement": "Percent wound closure", "setting": "ICR derived male mice; 0.5 μg/mouse topical once daily, Day 6", "value": "64.3* %"},
      {"measurement": "Percent wound closure", "setting": "ICR derived male mice; 0.5 μg/mouse topical once daily, Day 7", "value": "72.5* %"},
      {"measurement": "Percent wound closure", "setting": "ICR derived male mice; 0.5 μg/mouse topical once daily, Day 8", "value": "78.2* %"},
      {"measurement": "Percent wound closure", "setting": "ICR derived male mice; 0.5 μg/mouse topical once daily, Day 9", "value": "82.5* %"},
      {"measurement": "Percent wound closure", "setting": "ICR derived male mice; 0.5 μg/mouse topical once daily, Day 10", "value": "83.1* %"},
      {"measurement": "Percent wound closure", "setting": "ICR derived male mice; 0.5 μg/mouse topical once daily, Day 11", "value": "87.1* %"},
      {"measurement": "CT50 (wound half-closure time)", "setting": "ICR derived male mice; 0.5 μg/mouse topical once daily", "value": "4.3* DAYS"},
      {"measurement": "Percent wound closure", "setting": "ICR derived male mice; 2 μg/mouse topical once daily, Day 1", "value": 0, "unit": "%"},
      {"measurement": "Percent wound closure", "setting": "ICR derived male mice; 2 μg/mouse topical once daily, Day 2", "value": "35.6* %"},
      {"measurement": "Percent wound closure", "setting": "ICR derived male mice; 2 μg/mouse topical once daily, Day 3", "value": "46.5* %"},
      {"measurement": "Percent wound closure", "setting": "ICR derived male mice; 2 μg/mouse topical once daily, Day 4", "value": "57.4* %"},
      {"measurement": "Percent wound closure", "setting": "ICR derived male mice; 2 μg/mouse topical once daily, Day 5", "value": 62.4, "unit": "%"},
      {"measurement": "Percent wound closure", "setting": "ICR derived male mice; 2 μg/mouse topical once daily, Day 6", "value": "68.3* %"},
      {"measurement": "Percent wound closure", "setting": "ICR derived male mice; 2 μg/mouse topical once daily, Day 7", "value": "73.3* %"},
      {"measurement": "Percent wound closure", "setting": "ICR derived male mice; 2 μg/mouse topical once daily, Day 8", "value": "78.8* %"},
      {"measurement": "Percent wound closure", "setting": "ICR derived male mice; 2 μg/mouse topical once daily, Day 9", "value": "82.2* %"},
      {"measurement": "Percent wound closure", "setting": "ICR derived male mice; 2 μg/mouse topical once daily, Day 10", "value": "89.2* %"},
      {"measurement": "Percent wound closure", "setting": "ICR derived male mice; 2 μg/mouse topical once daily, Day 11", "value": "91.6* %"},
      {"measurement": "CT50 (wound half-closure time)", "setting": "ICR derived male mice; 2 μg/mouse topical once daily", "value": "4.4* DAYS"},
      {"measurement": "Total granulation tissue, lowest dose versus highest dose", "setting": "Yorkshire pig; 1 μg/40 μl versus 20 μg/40 μl topical, p=0.047", "value": "statistical difference"},
      {"measurement": "Total granulation tissue, highest dose versus placebo formulation", "setting": "Yorkshire pig; 20 μg/40 μl topical, p=0.035", "value": "statistical difference"},
      {"measurement": "Effect on total granulation tissue", "setting": "Yorkshire pig; topical 1, 4 and 20 μg/40 μl in 1.5% methylcellulose gel, 10 days, FIG. 1", "value": "stimulated the total granulation tissue in a dose-dependent fashion"}
    ]}
  ]
}
